Counter-ions that a name gives are not always drawn.
Columns and labels:
[1] = biological target: T1, recombinant human LTA4 hydrolase (rhLTA4H) (Homo sapiens, UniProt P09960); assay: Recombinant human LTA4 hydrolase assay for LTA4 hydrolase inhibitor activity; type: biochemical; details: rhLTA4H, LTB4 by immunoassay; single determination or average of two or more; mark after value = form tested: ′ free base, ″ hydrochloride, ^ formate; read-out: IC50
T1 construct: made in house; host or cells: Spodoptera frugiperda (Sf-9) cells, baculovirus (pFastBac1)
T1 sequence (P09960 1-611): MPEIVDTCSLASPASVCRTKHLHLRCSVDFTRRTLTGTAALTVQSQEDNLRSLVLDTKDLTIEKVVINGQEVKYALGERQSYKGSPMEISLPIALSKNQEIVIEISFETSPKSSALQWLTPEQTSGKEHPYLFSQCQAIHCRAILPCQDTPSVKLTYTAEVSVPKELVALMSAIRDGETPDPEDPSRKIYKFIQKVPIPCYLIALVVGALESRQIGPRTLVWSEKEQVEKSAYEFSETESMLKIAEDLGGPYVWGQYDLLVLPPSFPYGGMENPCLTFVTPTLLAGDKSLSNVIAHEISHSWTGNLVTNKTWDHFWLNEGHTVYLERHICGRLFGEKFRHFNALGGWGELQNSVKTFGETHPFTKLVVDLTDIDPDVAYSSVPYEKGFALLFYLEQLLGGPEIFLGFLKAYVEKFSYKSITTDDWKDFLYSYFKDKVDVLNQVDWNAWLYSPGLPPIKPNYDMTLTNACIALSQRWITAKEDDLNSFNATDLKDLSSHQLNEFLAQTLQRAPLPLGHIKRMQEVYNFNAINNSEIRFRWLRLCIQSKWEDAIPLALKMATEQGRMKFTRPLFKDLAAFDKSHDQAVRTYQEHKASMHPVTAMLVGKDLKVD
Outline: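 LTB4 formation, measured by enzyme immunoassay, was the read-out. The enzyme, recombinant human LTA4H expressed in Sf-9 insect cells (10 ng per reaction), was exposed to compound for 10 min at room temperature before hydrolysed-ester LTA4 substrate was added for 30 min. Enzyme-free negatives were included.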

[2] = tested on: LTB4 production in murine blood (LTA4H); assay: LTB4 production by calcium ionophore-stimulated murine blood for LTA4H inhibitor activity; type: cell-based, CD-1 mice; details: Mus musculus; murine blood diluted 1 in 15, A23187 stimulated; single determination or average; mark after value = form tested: ′ free base, ″ hydrochloride, ^ formate; read-out: IC50
Outline: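 LTB4 was measured by ELISA in supernatants after calcium ionophore A23187 stimulation (final 7 μg/mL, 30 min, 37° C) of CD-1 mouse blood collected on heparin. Compound was preincubated with the blood for 15 min beforehand. Values come from one determination or average several.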

[3] = tested on: arachidonic acid-induced neutrophil influx in murine ear tissue; assay: Murine arachidonic acid-induced inflammation model: neutrophil influx (myeloperoxidase) in ear; type: in vivo, Balb/c mice; details: Mus musculus; 30 mg/kg oral gavage, 60 min before topical arachidonic acid, ear biopsy after 3 h; percent inhibition of neutrophil influx; read-out: % Inh. MPO
Method: (§1) Assay 3: Murine Arachidonic Acid-Induced Inflammation Model
(§2) LTA4H inhibitor compounds of the present invention were dissolved in 20% cyclodextran/H2O at a concentration of 3 mg/mL. The solutions were administered by oral gavage to female Balb/c mice weighing approximately 20 grams each (0.2 mL per mouse, 30 mg of LTA4H inhibitor compound per kg). Sixty minutes after being administered an LTA4 inhibitor, each mouse received topical application of 20 μL of arachidonic acid (100 mg/mL in acetone) to the left ear and 20 μL of acetone only to the right ear. After 3 h, the mice were sacrificed, blood was withdrawn in heparinized syringes, and 8 mm ear biopsies were taken. Ear biopsies were weighed to determine edema and then frozen at −80° C. until needed for determination of neutrophil influx.
Neutrophil influx was quantified by measuring the activity of myeloperoxidase (MPO), a neutrophil-specific enzyme. […] Debris was removed by centrifugation at 14000×g for 10 min. […] The microtiter plate contents were held at room temperature until the sample with the highest concentration of MPO reached an absorbance value of 0.4 at 650 nm. The reaction was stopped by addition of 50 μL 1 M H2SO4 to each sample well, and the myeloperoxidase activity in each sample was determined from the absorbance at […]. The background value from the right ear, treated only with acetone, was subtracted from that for the left ear, treated with arachidonic acid in acetone, for each animal. The percent inhibition of neutrophil influx (% Inh. MPO) by compounds of the invention was determined by comparison to animals treated identically, except that the solution administered by oral gavage was devoid of inhibitor compound. All compounds were assayed in their free base form.

[4] = tested on: ex vivo calcium ionophore-stimulated LTB4 production in whole blood; assay: Murine arachidonic acid-induced inflammation model: ex vivo stimulated LTB4 production in blood; parameters: species or system Balb/c mice; details: Mus musculus; 30 mg/kg oral gavage; blood diluted 1:1, A23187 stimulated ex vivo; percent inhibition of LTB4 production; read-out: % Inh. LTB4
Method: as §1, §2
The microtiter plate contents were incubated for 30 min at 37° C. in a humidified incubator. The reaction was terminated by centrifugation (833×g, 10 min at 4° C.). Supernatants were analyzed for LTB4 by a commercially available enzyme-linked immunoassay (Cayman Chemical Co.) in accordance with the manufacturer's instructions. The percent inhibition of ex vivo stimulated LTB4 production (% Inh. LTB4) was determined by comparison to animals treated identically except that the solution administered by oral gavage was devoid of inhibitor compound.

Compound | IC50 [1] | IC50 [2] | inhibition at 30 mg/kg [3] | inhibition at 30 mg/kg [4]
NC(=O)C1CCCN(Cc2coc3cc(Oc4nc5ncccc5s4)ccc23)C1 (stereo in doubt) [Example 216, (3S)-1-[6-(Thiazolo[4,5-b]pyridin-2-yloxy)-benzofuran-3-ylmethyl]-piperidine-3-carboxylic acid amide] | 3 nM | 28 nM | 87% | 87%
C[C@H]1COCCN1Cc1c[nH]c2cc(Oc3nc4ncccc4s3)ccc12 [Example 41, (3S)-2-[3-(3-Methyl-morpholin-4-ylmethyl)-1H-indol-6-yloxy]-thiazolo[4,5-b]pyridine] | 4 nM | 34 nM | 62% | 65%
c1cnc2sc(Oc3ccc4c(CN5CCOCC5)c[nH]c4c3)nc2n1 [Example 56, 2-(3-Morpholin-4-ylmethyl-1H-indol-6-yloxy)-thiazolo[4,5-b]pyrazine] | 81 nM | 290 nM | 45% | 40%
Fc1cnc2nc(Oc3ccc4c(CN5CCOCC5)c[nH]c4c3)sc2c1 [Example 58, 6-Fluoro-2-(3-morpholin-4-ylmethyl-1H-indol-6-yloxy)-thiazolo[4,5-b]pyridine] | 10 nM | 250 nM | 57% | 84%
O=C(O)C1CCN(Cc2cc3cc(Oc4nc5ccccc5s4)ccc3o2)CC1 [Example 76, 1-[5-(Benzothiazol-2-yloxy)-benzofuran-2-ylmethyl]-piperidine-4-carboxylic acid] | 28 nM | 48 nM | 89% | 85%
O=C(O)C1CCN(Cc2cc3ccc(Oc4nc5ccccc5s4)cc3o2)CC1 [Example 77, 1-[6-(Benzothiazol-2-yloxy)-benzofuran-2-ylmethyl]-piperidine-4-carboxylic acid] | 35 nM | 30 nM | 77% | 85%
CC(=O)N1CC2CN(Cc3cc4cc(Oc5nc6ncccc6s5)ccc4o3)CC2C1 (stereo not shown) [Example 90, 1-{5-[5-(Thiazolo[4,5-b]pyridin-2-yloxy)-benzofuran-2-ylmethyl]-hexahydro-pyrrolo[3,4-c]pyrrol-2-yl}-ethanone] | 35 nM | 22 nM | 50% | 61%
CC(=O)N1C[C@H]2CC[C@@H](C1)N2Cc1cc2cc(Oc3nc4ncccc4s3)ccc2o1 [Example 93, meso-1-{8-[5-(Thiazolo[4,5-b]pyridin-2-yloxy)-benzofuran-2-ylmethyl]-3,8-diaza-bicyclo[3.2.1]oct-3-yl}-ethanone] | 3 nM | 23 nM | 87% | 85%
O=C(c1coc2cc(Oc3nc4ncccc4s3)ccc12)N1CCN(C2CCCCC2)CC1 [Example 379, (4-Cyclohexyl-piperazin-1-yl)-[6-(thiazolo[4,5-b]pyridin-2-yloxy)-benzofuran-3-yl]-methanone] | 10 nM | 150 nM | – | –
CC(=O)N1CCN(C(=O)c2coc3cc(Oc4nc5ncccc5s4)ccc23)CC1 [Example 380, 1-{4-[6-(Thiazolo[4,5-b]pyridin-2-yloxy)-benzofuran-3-carbonyl]-piperazin-1-yl}-ethanone] | 7 nM | 35 nM | – | –
O=C(c1coc2cc(Oc3nc4ncccc4s3)ccc12)N1CCC(Oc2ncccn2)CC1 [Example 382, [4-(Pyrimidin-2-yloxy)-piperidin-1-yl]-[6-(thiazolo[4,5-b]pyridin-2-yloxy)-benzofuran-3-yl]-methanone] | 10 nM | 60 nM | – | –
O=C(c1coc2cc(Oc3nc4ncccc4s3)ccc12)N1CCCCC1 [Example 383, Piperidin-1-yl-[6-(thiazolo[4,5-b]pyridin-2-yloxy)-benzofuran-3-yl]-methanone] | 50 nM | 200 nM | – | –
O=C(c1coc2cc(Oc3nc4ncccc4s3)ccc12)N1CCC(C(=O)N2CCCCC2)CC1 [Example 384, [4-(Piperidine-1-carbonyl)-piperidin-1-yl]-[6-(thiazolo[4,5-b]pyridin-2-yloxy)-benzofuran-3-yl]-methanone] | 12 nM | 120 nM | – | –
CC(=O)N1CCN(CC(=O)NCc2coc3cc(Oc4nc5ncccc5s4)ccc23)CC1 [Example 390, 2-(4-Acetyl-piperazin-1-yl)-N-[6-(thiazolo[4,5-b]pyridin-2-yloxy)-benzofuran-3-ylmethyl]-acetamide] | 27 nM | 270 nM | – | –
Cc1cc(CC(=O)NCc2coc3cc(Oc4nc5ncccc5s4)ccc23)on1 [Example 391, 2-(3-Methyl-isoxazol-5-yl)-N-[6-(thiazolo[4,5-b]pyridin-2-yloxy)-benzofuran-3-ylmethyl]-acetamide] | 74 nM | 560 nM | – | –
O=C(NCc1coc2cc(Oc3nc4ncccc4s3)ccc12)C1CCC(O)CC1 (stereo not shown) [Example 392, 4-Hydroxy-cyclohexanecarboxylic acid [6-(thiazolo[4,5-b]pyridin-2-yloxy)-benzofuran-3-ylmethyl]-amide] | 29 nM | 290 nM | – | –
O=C1CCc2ccccc2N1Cc1coc2cc(Oc3nc4ncccc4s3)ccc12 [Example 397, 1-[6-(Thiazolo[4,5-b]pyridin-2-yloxy)-benzofuran-3-ylmethyl]-3,4-dihydro-1H-quinolin-2-one] | 16 nM | 820 nM | – | –
O=C1Cc2ccccc2N1Cc1coc2cc(Oc3nc4ncccc4s3)ccc12 [Example 399, 1-[6-(Thiazolo[4,5-b]pyridin-2-yloxy)-benzofuran-3-ylmethyl]-1,3-dihydro-indol-2-one] | 13 nM | 300 nM | – | –
O=C1Cc2ccc(Cl)cc2N1Cc1coc2cc(Oc3nc4ncccc4s3)ccc12 [Example 402, 6-Chloro-1-[6-(thiazolo[4,5-b]pyridin-2-yloxy)-benzofuran-3-ylmethyl]-1,3-dihydro-indol-2-one] | 32 nM | 400 nM | – | –
O=C1Cc2cc(F)ccc2N1Cc1coc2cc(Oc3nc4ncccc4s3)ccc12 [Example 403, 5-Fluoro-1-[6-(thiazolo[4,5-b]pyridin-2-yloxy)-benzofuran-3-ylmethyl]-1,3-dihydro-indol-2-one] | 47 nM | 690 nM | – | –
NC(=O)N1C[C@@H]2C[C@H]1CN2 [Inter. 17, (1S,4S)-2,5-Diaza-bicyclo[2.2.1]heptane-2-carboxylic acid amide hydrochloride] | 37 nM | 1000 nM | – | –

— patent US8399465B2, “Compounds with two fused bicyclic heteroaryl moieties as modulators of leukotriene A4 hydrolase” (Janssen Pharmaceutica NV, priority 2009, dated 2013)
